Like-named read-outs stand apart in the source and are kept apart here. Blank lines part the entries; values can stand above or below the compound they belong to.
Key:
[1] = target: human MGL from HeLa cells (Homo sapiens (Human), UniProt Q99685); assay: in vitro MGL activity assay ([glycerol-1,3-3H]-oleoyl glycerol cleavage); format: biochemical
Description: The assay consists of combining endogenously expressed MGL from HeLa cells with test compounds, adding [glycerol-1,3-^3H]-oleoyl glycerol, incubating for one hour, and then measuring the amount of cleaved [1,3-^3H]-glycerol that passes through an activated carbon filter. The amount of cleaved, tritiated glycerol passing through the carbon filter is proportional to the activity of the MGL enzyme in a particular well/test condition.
Standard conditions for this assay combine 300 nM [Glycerol-1,3-^3H]-oleoyl glycerol with human MGL from HeLa cells and test compounds for one hour, after which the reaction is filtered through activated carbon and tritium is measured in the flow through. […] MGL is the predominant hydrolase in HeLa cells/cell homogenates.

[2] = tested on: BTBR mice; assay: Three-chamber sociability test in BTBR mice (autism model); format: in vivo, mouse; settings: 3 mg/kg p.o., 60 minutes before testing
Description: (§1) Biological Example 3. The behavioral effects of the compound of Example 78 were evaluated using an animal model of autism in a sociability assay after administration of the compound. The sociability assay was conducted using C57BL/6J mice (commerically available from the Jackon Laboratory, Bar Harbor, ME) as control, and BTBR T^+ Itpr3^tf/mice (referred herein as “BTBR”)(commerically available from the Jackon Laboratory, Bar Harbor, ME) as an autism model.
The BTBR mice used in Biological Example 3 was derived from the inbred strain BTBR (Black and Tan BRachyury) that carried the mutations a^t (nonagouti; black and tan), Itpr3^tf (inositol 1,4,5-triphosphate receptor 3; tufted), and T (brachyury). […] (Wahlsten D, 2003 Brain Res). […] (McFarlane H G, 2008, Gen, Brain Behav; Moy S S, 2007, Behav Br Res, Scattoni M L, 2008, PLos). This strain of mice contains the Trem2S148E allele—a naturally occurring variant at position 48351151-48351152 on Chr 17 (rs108080490 and rs107649577; Ensembl GRCm38.p6). This TC to GA transition results in a serine to glutamic acid substitution at amino acid 148 (S148E).
(§2) Thirty (30) C57BL/6J female mice and thirty (30) BTBR female mice (7-8 weeks old) were used in Biological Example 3. Upon arrival, mice were group-housed (4-5/cage) and acclimated for at least 5 days prior to commencing studies. Animals were maintained on a 12 hr light/dark cycle with room temperature maintained at 22±2° C. and approximately 50% humidity and had access to food and water ad libitum until the day before the experiment.
(§3) The two solutions listed in Table 4 were formulated fresh daily for p.o. administration. Both solutions comprise 20% 2-Hydroxypropyl-β-cyclodextrin (HP-3-CD). The solution containing Example 78 is in a concentration of 0.3 mg/mL.
(§4) Each type of mice is divided into two different treatment groups: those orally administered a Vehicle solution, and those orally administered with a solution of Example 78, both prepared according to Table 4 above. The mice were randomly assigned to treatment groups according to Table 5 below. Mice were administered the test article 60 minutes prior to testing.
(§5) Experiments were carried out in a gray plastic arena with two clear dividers creating three chambers (each 19 cm×45 cm). […] Two wire cup-like containers were placed in the corner of either end of the arena (right chamber and left chamber). These containers were used to house either stimulus or familiar mice. The arena was placed in a room with dim lighting (˜10 lux). Animals were brought into the room to acclimate for at least 1 hour prior to beginning experiment.
Initially, empty wire cups are placed into the right and left chambers. Each of the C57BL/6J or BTBR mouse was placed into the center chamber and allowed to habituate for 10 minutes to the arena. After the 10-minute habituation and with the animal still in the arena, a first stimulus mouse, which was subsequently considered a familiar mouse, was placed inside one of the wire cups in either the right or left chamber. In the other wire cup, a small object was placed. The placement of the stimulus mouse and small object switched sides across subjects. The C57BL/6J or BTBR mouse was allowed 10 minutes to explore all three chambers. A second stimulus mouse was subsequently placed in the wire cup in the opposite chamber. The first stimulus mouse was considered as familiar mouse. Again, the C57BL/6J or BTBR mouse was allowed 10 minutes to explore all three chambers.
During the latter 10-minute period, activity of each mouse was recorded and analyzed using the Noldus EthoVision™ software, which is a video tracking software that tracks and analyzes the behavior, movement. The following data were record and scored using activity of each mouse for:
(1) Duration and number of direct/active contacts between the test mouse and both wire cups (stimulus vs. familiar); Active contact was defined as mouse stretching towards wire cup within a 3-5 mm area around the cup; and […]

[3] = tested on: C57BL/6J mice; assay: Three-chamber sociability test in C57BL/6J mice (control); format: in vivo, mouse; settings: C57BL/6 mice, 3 mg/kg p.o., 60 minutes before testing
Description: as §1, §2, §3, §4, §5
Initially, empty wire cups are placed into the right and left chambers. Each of the C57BL/6J or BTBR mouse was placed into the center chamber and allowed to habituate for 10 minutes to the arena. After the 10-minute habituation and with the animal still in the arena, a first stimulus mouse, which was subsequently considered a familiar mouse, was placed inside one of the wire cups in either the right or left chamber. In the other wire cup, a small object was placed. […]
During the latter 10-minute period, activity of each mouse was recorded and analyzed using the Noldus EthoVision™ software, which is a video tracking software that tracks and analyzes the behavior, movement. The following data were record and scored using activity of each mouse for: […]
Data were plotted and analyzed using GraphPad Prism (version 9.1.1) software. […]

[4] = 300 nM [Glycerol-1,3-3H]-oleoyl glycerol, one hour, read-out: MGL IC50

Chain of human MGL from HeLa cells (Q99685 whole entry): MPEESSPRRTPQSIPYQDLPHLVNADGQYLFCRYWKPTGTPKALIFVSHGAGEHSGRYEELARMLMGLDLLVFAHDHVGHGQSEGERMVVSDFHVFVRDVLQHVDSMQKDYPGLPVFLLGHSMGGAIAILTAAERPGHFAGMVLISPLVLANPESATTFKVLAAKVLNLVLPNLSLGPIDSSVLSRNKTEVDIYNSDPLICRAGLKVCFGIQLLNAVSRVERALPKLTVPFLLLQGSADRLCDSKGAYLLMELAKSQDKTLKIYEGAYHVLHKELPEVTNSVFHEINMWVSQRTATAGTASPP

Compound: CC(C)c1cccc([C@H]2[C@@H]3CN(C(=O)[C@H]4C[C@]5(COC(=O)N5)C4)C[C@@H]32)c1 [Example 84, (2s,4S)-2-((1R,5S,6S)-6-(3-Isopropylphenyl)-3-azabicyclo[3.1.0]hexane-3-carbonyl)-7-oxa-5-azaspiro[3.4]octan-6-one]
IC50 [1, 4]: 5.5 nM

Compound: O=C1CC[C@]2(C[C@H](C(=O)N3CCC4(c5cccc(OC(F)(F)F)c5)CC4C3)C2)N1 (mixture of isomers) [Example 52, (rac)-(2r,4s)-2-(6-(3-(Trifluoromethoxy)phenyl)-3-azabicyclo[4.1.0]heptane-3-carbonyl)-5-azaspiro[3.4]octan-6-one]
IC50 [1]: 4.8 nM

Compound: O=C1CC[C@]2(C[C@H](C(=O)N3CC[C@@]4(c5cccc(OC(F)(F)F)c5)C[C@H]4C3)C2)N1 (stereo in doubt) [Example 119, (2r,4*S)-2-((1*R,6*S)-6-(3-(Trifluoromethoxy)phenyl)-3-azabicyclo[4.1.0]heptane-3-carbonyl)-5-azaspiro[3.4]octan-6-one]
IC50 [1, 4]: 5.2 nM

Compound: CC(C)(C)c1cccc([C@H]2[C@@H]3CN(C(=O)[C@H]4C[C@]5(COC(=O)N5)C4)C[C@@H]32)c1 [Example 78, (2s,4S)-2-((1R,5S,6S)-6-(3-(tert-Butyl)phenyl)-3-azabicyclo[3.1.0]hexane-3-carbonyl)-7-oxa-5-azaspiro[3.4]octan-6-one]
Mean Diff., amount of time spent exploring familiar mouse chamber and stimulus mouse chamber (Bonferroni's multiple comparisons test) [2]: −40.36 | Mean Diff., amount of time spent interacting with familiar mouse or stimulus mouse (Bonferroni's multiple comparisons test) [2]: −5.578 | Mean Diff., number of entries into familiar mouse chamber and stimulus mouse chamber (Bonferroni's multiple comparisons test) [2]: 4.133 | Mean Diff., number of interactions with familiar mouse or stimulus mouse (Bonferroni's multiple comparisons test) [2]: −47.07 | preference to familiar mouse over stimulus mouse (FIGS. 1C and 1D) [2]: did not show preference to familiar mouse over stimulus mouse | social interaction (interest in social novelty) as compared to BTBR mice treated with placebo [2]: improved social interaction | Mean Diff., amount of time spent exploring familiar mouse chamber and stimulus mouse chamber (Bonferroni's multiple comparisons test) [3]: −23.01 | Mean Diff., amount of time spent interacting with familiar mouse or stimulus mouse (Bonferroni's multiple comparisons test) [3]: 2.873 | Mean Diff., number of entries into familiar mouse chamber and stimulus mouse chamber (Bonferroni's multiple comparisons test) [3]: 8.133 | Mean Diff., number of interactions with familiar mouse or stimulus mouse (Bonferroni's multiple comparisons test) [3]: 37.87

Compound: O=C1CC[C@]2(C[C@H](C(=O)N3CC[C@]4(c5cccc(OC(F)(F)F)c5)C[C@@H]4C3)C2)N1 (stereo in doubt) [Example 120, (2r,4*R)-2-((1*S,6*R)-6-(3-(Trifluoromethoxy)phenyl)-3-azabicyclo[4.1.0]heptane-3-carbonyl)-5-azaspiro[3.4]octan-6-one]
IC50 [1, 4]: 23 nM

Results, then the compound that gave them:

IC50 [1, 4]: 12 nM
Compound: O=C1CC[C@]2(C[C@H](C(=O)N3CC[C@]4(c5ccc(OC(F)(F)F)cc5)C[C@@H]4C3)C2)N1 (stereo in doubt) [Example 122, (2r,4*R)-2-((1*S,6*R)-6-(4-(Trifluoromethoxy)phenyl)-3-azabicyclo[4.1.0]heptane-3-carbonyl)-5-azaspiro[3.4]octan-6-one]

IC50 [1, 4]: 18 nM
Compound: O=C1CC[C@]2(C[C@H](C(=O)N3CCC4(c5ccc(C(F)(F)F)cc5)CC4C3)C2)N1 (mixture of isomers) [Example 59, (rac)-(2r,4s)-2-(6-(4-(Trifluoromethyl)phenyl)-3-azabicyclo[4.1.0]heptane-3-carbonyl)-5-azaspiro[3.4]octan-6-one]

IC50 [1, 4]: 42 nM
Compound: O=C1CC[C@]2(C[C@H](C(=O)N3CC[C@@]4(c5ccc(OC(F)(F)F)cc5)C[C@H]4C3)C2)N1 (stereo in doubt) [Example 121, (2r,4*S)-2-((1*R,6*S)-6-(4-(Trifluoromethoxy)phenyl)-3-azabicyclo[4.1.0]heptane-3-carbonyl)-5-azaspiro[3.4]octan-6-one]

IC50 [1, 4]: 2.8 nM
Compound: Cc1cccc([C@]23CCN(C(=O)[C@H]4C[C@]5(COC(=O)N5)C4)C[C@H]2C3)c1 (relative stereo) [Example 44, (2s,4*R)-2-((1*S,6*R)-6-(m-Tolyl)-3-azabicyclo[4.1.0]heptane-3-carbonyl)-7-oxa-5-azaspiro[3.4]octan-6-one]

IC50 [1, 4]: 10 nM
Compound: O=C1CC[C@]2(C[C@H](C(=O)N3CCC4(c5ccc(OC(F)(F)F)cc5)CC4C3)C2)N1 (mixture of isomers) [Example 55, (rac)-(2r,4s)-2-(6-(4-(Trifluoromethoxy)phenyl)-3-azabicyclo[4.1.0]heptane-3-carbonyl)-5-azaspiro[3.4]octan-6-one]

Source: US11974987B2, “Monoacylglycerol lipase modulators for use in autism spectrum disorders” (Janssen Pharmaceutica NV, priority 2021, dated 2024)
